Where no end group is shown, it is not given here.
How the values were obtained:
[1] = target: T1, Transferrin (Homo sapiens, UniProt P02787); experiment: SPR solution phase KD of candidate affinity elements, transferrin immobilized (Biacore T100); assay type: binding; conditions: steady-state response, 25° C., PBST
Description: Transferrin 25 μg/ml in immobilization buffer selected for correct pH was then applied 302 at a flow rate of 5 to 10 μl/min for a contact time of about 5 to 10 minutes, allowing the amine functionality on the transferrin 308 to displace the activated NHS ester and bond to the surface via an amide bond. Finally, ethylene diamine (1M ethylene diamine-HCl at pH 8.5) was applied 304 at a flow rate of 5 to 10 μl/min for a contact time of about 6 to 7 minutes to deactivate any remaining reactive groups on the dextran chip surface. Flow rates and contact times are adjusted as necessary to provide the surface concentration of target desired for the intended application, and may vary by target. In general, for evaluating whether binding occurs, it is preferable to immobilize a relatively large quantity of target, and higher flow rates and/or longer contact times may be used. For determining kinetics, it is preferable to limit the amount of target immobilized so as to minimize rebinding and avidity effects, and lower flow rates and/or contact times may be used.
Candidate affinity elements for the transferrin synbody TRF19, TRF21, TRF23, TRF24, TRF25, and TRF26 were individually evaluated for solution phase KD with respect to transferrin by SPR analysis. Because the off rates for these polypeptides were very high, KD values were estimated by measuring steady-state response for at least five concentrations in a two-fold dilution series, each concentration tested in duplicate. For each experiment, response data were processed using a reference surface to correct for bulk refractive index changes and any non-specific binding. Data were also double referenced using responses from blank running buffer injections. Each experiment was conducted at 25° C. using PBST (0.01M Phosphate Buffered Saline, 0.138M NaCl, 0.0027M KCl, 0.05% surfactant Tween20, pH 7.4) as the running buffer on a Biacore T100 instrument. Analytes were injected for 60 s at a flow rate of 30 μl/min. The antigen surfaces were regenerated with 30 s consecutive pulses of NaOH/NaCl (50 mM NaOH in 1M NaCl) and Glycine (10 mM glycine-HCl, pH 2.5).

[2] = target: T1, Transferrin; experiment: SPR analysis of peptide pairs for binding to distinct sites on target; conditions: peptides applied in 1:1 mixtures in pairs
From the text: The transferrin target was immobilized on a Biacore T100 SPR chip, and candidate polypeptides were applied in 1:1 mixtures in pairs and response data obtained, in accordance with the methods described in Example 4 above. As illustrated in FIGS. 12A-D, upon flowing candidate polypeptides over the immobilized target, ideally one polypeptide applied alone would bind to a first binding site on the target and produce a first characteristic SPR response level (FIG. 12A), the other polypeptide would bind to a second, distinct binding site on the target, producing a second characteristic response level (FIG. 12B), and a mixture of the two polypeptides together (at the same concentrations as before) would produce a response level approximating the sum of the response levels produced by each polypeptide alone, as the polypeptides bind to distinct binding sites (FIG. 12C).

[3] = target: T1, Transferrin; experiment: Affinity characterization of TRF26 lead and selected mutants; assay type: binding
Description: Two TRF26 point-mutants (P6Y, H12F) were selected for further affinity characterization. The P6Y and H12F point-mutants have dissociation constants of 8.6±1.6 μM and 9.8±1.6 μM respectively. […] A TRF26 double mutant sequence containing the P6Y+H12F mutations was synthesized and characterized.

[4] = target: T1, Transferrin; experiment: Peptide microarray ranking, labeled transferrin with E. coli lysate competitor; assay type: binding
Description: Several polypeptides were identified as candidate affinity elements for synbodies against an arbitrarily chosen protein target, transferrin, by incubating transferrin on the polypeptide microarray in the presence of E. coli lysate competitor. Transferrin was randomly direct-labeled at free amines with Alexa™ 555, and E. coli lysate was randomly direct-labeled at free amines with Alexa™ 647. Three replicate arrays were passivized by applying a mixture of BSA and mercaptohexanol for one hour. The arrays were blocked with unlabelled E. coli lysate for one hour, then washed three times with TBST (0.05% Tween) followed by three times with water. A mixture of labeled transferrin and labeled E. coli lysate was applied to the three replicate arrays and incubated for three hours. The arrays were again washed three times with TBST (0.05% Tween) followed by three times with water, and scanned at 555 nm and 647 nm using an array reader. Polypeptides were ranked as candidates for inclusion as affinity elements of synbodies by computing a score for each polypeptide equal to the mean raw 555 nm intensity over the six replicate features, squared, divided by the mean raw 647 nm intensity over the six replicate features. This simple scoring function tends to favor candidate polypeptides that bind at least moderate affinity, since otherwise the 555 nm intensity would be relatively lower, and that are relatively specific, since otherwise the 647 nm intensity would be relatively higher and contribute to a relatively lower score. Many variations of this ranking and identification process can be used, such as, by way of non-limiting examples, two-color comparisons against other competitors; comparisons with data taken in separate experiments with respect to other targets; and use of scoring functions taking into account other factors, employing other functional relationships, and/or involving statistical analysis and/or preprocessing of data and/or correcting for background fluorescence and/or other factors affecting the accuracy of the measured intensities. Ten polypeptides (Table 1) were identified for further evaluation for use as affinity elements in synbodies by choosing the polypeptides having the highest score (one polypeptide was rejected as difficult to synthesize, so the polypeptides chosen were ten of those having the eleven highest scores).
After preparation of the array in accordance with the methods previously described in Example 2, the array was washed one time for five minutes in 7.33% acetonitrile, 37% isopropanol, 0.55% trifluoroacetic acid, and 55% water. Alexa 555 labeled target protein transferrin was applied, together with Alexa 647 labeled E. coli lysate competitor, to the prewashed array and to an identical array without organic prewash. […] 5,010 on the array without organic prewash, but ranked no. 9601 on the prewashed array. Conversely, peptide TRF-21, shown by SPR analysis to be a relatively strong binder of transferrin, rose in rank from 84 on the non-prewashed array to rank no. 5 on the prewashed array.

[5] = target: T2, TNF-α (Homo sapiens, UniProt P01375); experiment: SPR of TNF1 lead and mutant peptides on captured TNF-α (Biacore A100); assay type: binding
T2 sequence (P01375 77-233 limits assumed, species assumed): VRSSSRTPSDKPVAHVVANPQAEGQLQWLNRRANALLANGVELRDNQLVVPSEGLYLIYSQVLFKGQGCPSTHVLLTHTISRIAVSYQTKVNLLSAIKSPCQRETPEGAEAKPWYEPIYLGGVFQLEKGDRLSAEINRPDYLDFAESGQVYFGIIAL
From the text: Scanning Mutagenesis of the TNF1 Lead Peptide. After lead identification, the next step in the AMPLI algorithm is characterization of point mutations in the lead heteropolymer. Using short peptides makes it chemically feasible to synthesize a significant fraction of the point-mutant space, which can then be screened for enhanced point mutations. For example, all possible point mutations in the 17 randomized positions using all 20 natural amino acids could be synthesized and screened within a single 384-well plate (323 total point-mutants). However, libraries containing all 20 natural amino acids are not required for affinity optimization of protein-protein interactions. A library of TNF1 point-mutants containing all substitutions of the amino acid set {Y, A, D, S, K, N, V, W} in each of the 17 randomized positions (132 unique point-mutants) was synthesized. Tyrosine (Y), alanine (A), aspartic acid (D) and serine (S) were selected because of their effectiveness in producing high affinity interactions when substituted into the complementary-determining regions (CDRs) of synthetic antibodies (Felouse, Proceedings of the National Academy of Sciences 101(34):12467, 2004), lysine (K) was selected to balance the charge in the substitution set, asparagine (N), valine (V) and tryptophan (W) were selected to span the hydropathicity range (Kyte J & Doolittle R F, Journal of Molecular Biology 157(1):105-132, 1982). […] This concentration was used to increase the high-end dynamic range for quantifying enhancing point mutations at the expense of low-end dynamic range for quantifying detrimental point mutations.
Point-mutant libraries were prepared in 96-well stock plates From the stock plate, peptides were diluted to 50 μM concentration in Biacore HBS-EP buffer (GE Healthcare, Piscataway, N.J.) containing 1 mg/ml carboxymethyl-dextran (Sigma-Aldrich, St. Louis, Mo.) to reduce non-specific binding to the CM-5 SPR chip surface. TNF-α was captured on a CM-5 chip surface at different capture levels on spots 1, 2, 4, and 5 across all four flow cells corresponding to a 40-200 RU range of predicted Rmax binding responses. Spot 3 contained only immobilized neutravidin and served as a reference spot.
Using the prepared 96-well plates and Biacore A100 SPR instrument, four peptides were flowed separately, in parallel, through the four flow cells over all 4 TNF-α spots and the neutravidin reference spot, with a 60 second association phase and 300 second dissociation phase. SPR sensorgrams were recorded for each peptide response with all 4 TNF-α spots and the neutravidin reference spot across the four flow cells on the SPR chip. Surface regeneration was performed after every 12 injections in each flow cell with Biacore Glycine 2.5 regeneration solution (GE Healthcare, Piscataway, N.J.). Point-mutant reference subtracted, peptide molecular weight adjusted, responses at the late binding region of the sensorgram (a few seconds before dissociation) were compared to the response of the TNF1 lead
Purified point-mutant affinities were measured on the Biacore A100 using SPR equilibrium binding response across a series of peptide concentrations on an SPR chip with TNF-α captured as described above.
These sequences were synthesized and purified using standard solid-phase FMOC synthesis and HPLC purification.

[6] = target: T2, TNF-α; experiment: Fluorescence anisotropy validation of TNF1-opt affinity; assay type: binding
Description: Affinity Characterization of Double, Triple and Quadruple Mutants. […] In all cases, an improvement in TNF-α affinity was observed when an additional enhancing substitution was added to the sequence. Double mutants were better than the corresponding single mutants, triple mutants were better than the corresponding single/double mutants and the quadruple mutant was better than the corresponding single/double/triple mutants (FIG. 71, Table 2).

[7] = target: T2, TNF-α; experiment: SPR of TNF1 lead and mutant peptides on captured TNF-α (Biacore A100); assay type: binding; conditions: several sensorgrams; read-out: Kd determined from kinetic fits

T1 sequence (P02787 20-698): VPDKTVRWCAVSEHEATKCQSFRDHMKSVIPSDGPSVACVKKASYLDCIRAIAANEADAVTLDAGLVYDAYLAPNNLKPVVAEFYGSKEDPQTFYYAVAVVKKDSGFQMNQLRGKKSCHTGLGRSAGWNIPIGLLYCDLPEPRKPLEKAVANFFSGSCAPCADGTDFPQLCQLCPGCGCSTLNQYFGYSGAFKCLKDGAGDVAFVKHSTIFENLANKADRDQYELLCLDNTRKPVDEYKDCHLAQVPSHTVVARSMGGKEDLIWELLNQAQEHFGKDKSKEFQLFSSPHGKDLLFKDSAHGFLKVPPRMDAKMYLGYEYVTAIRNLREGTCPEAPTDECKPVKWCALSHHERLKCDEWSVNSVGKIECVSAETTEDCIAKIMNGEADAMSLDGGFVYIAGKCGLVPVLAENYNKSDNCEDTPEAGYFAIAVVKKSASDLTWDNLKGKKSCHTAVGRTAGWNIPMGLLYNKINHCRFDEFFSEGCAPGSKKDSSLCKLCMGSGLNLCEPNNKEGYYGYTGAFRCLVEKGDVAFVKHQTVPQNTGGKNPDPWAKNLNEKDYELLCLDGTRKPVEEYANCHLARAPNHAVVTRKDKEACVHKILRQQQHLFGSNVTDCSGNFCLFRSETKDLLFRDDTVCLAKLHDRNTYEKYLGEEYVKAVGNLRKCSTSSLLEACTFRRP

Row | Kd [1] [nM] | binding to distinct sites on transferrin [2] | Binding ΔG (observed) [3] [kcal/mol] | Rank -- prewash ([4]; array with organic prewash) | Rank - non-prewash ([4]; array without organic prewash) | Kd Fold-Change Relative to Lead [5] | Kd ([5]; SPR equilibrium binding response, read-out: Kd (observed)) [nM] | Binding ΔG (observed) ([5]; calculated from dissociation constants) [kcal/mol] | Kd ([5]; energetic additivity of component mutations, read-out: Predicted Kd) [nM] | Kd [6] [nM] | Kd [7] [nM] | Sequence
1 | ~100000 | bind distinct sites on transferrin | -5.56 ± 0.10 | 436 | 596 | – | – | – | – | – | – | AHKVVPQRQIRHAYNRYGSC [TRF26]
2 | – | – | – | – | – | 100 ± 22 | 1600 ± 300 | -7.97 ± -0.11 | 700 to 1900 | 1100 ± 200 | 700 ± 20 | FERSYLKMPWKFLQSRQGSC [TNF1-opt]

— US20120065123A1, “Synthetic Antibodies” (priority 2009, published 2012)
